From EPA's ToxRefDB 2

Experiments:
[1] = test system: rat; details: Prenatal developmental toxicity study, sprague dawley, Oral, Gavage/Intubation, dose end: 15 GD
[2] = test system: mouse; details: Combined chronic toxicity/carcinogenicity, b6c3f1, Oral, Feed, dose end: 2 year, group: systemic
[3] = test system: rabbit; details: Prenatal developmental toxicity study; new zealand white; Oral; Gavage/Intubation; dose end: 19 GD; group: maternal; reproductive / reproductive performance / pregnancy / pregnancy + reproductive / reproductive performance / premature delivery / premature …
[4] = test system: mouse; details: Multigenerational reproductive toxicity study, cd1, Oral, Water, dose end: 2 generation
[5] = test system: mouse; details: Multigenerational reproductive toxicity study, cd1, Oral, Water, dose end: 2 generation; remark: listed apart in the source
[6] = test system: rat; details: Subchronic oral toxicity in rodents, fischer, Feed, dose end: 13 week, group: systemic
[7] = test system: mouse; details: Subchronic oral toxicity in rodents, b6c3f1, Feed, dose end: 13 week, group: systemic, systemic / pathology microscopic / liver / degeneration + systemic / pathology microscopic / liver / hyalinization
[8] = test system: rat; details: Prenatal developmental toxicity study, sprague dawley, Oral, Gavage/Intubation, dose end: 20 GD
[9] = group: developmental, developmental / developmental malformation / bone / absent + developmental / developmental malformation / bone / delayed ossification + …
[10] = group: maternal, systemic / in life observation / body weight / body weight + systemic / in life observation / body weight / body weight gain + reproductive…
[11] = systemic / pathology microscopic / liver / degeneration
[12] = systemic / pathology microscopic / liver / degeneration + systemic / pathology microscopic / lung / hyperplasia + systemic / pathology …
[13] = group: offspring, developmental / developmental malformation / bone / absent + developmental / developmental malformation / bone / fused + developmental / …
[14] = group: parental, systemic / in life observation / mortality / mortality
[15] = group: reproductive, reproductive / reproductive performance / fertility / fertility + reproductive / offspring survival early / litter size / litter size
[16] = group: offspring, developmental / developmental malformation / eye / absent + developmental / developmental malformation / mouth / jaw / cleft lip + …
[17] = group: offspring, systemic / in life observation / body weight / offspring (pup) weight
[18] = group: parental, systemic / in life observation / water consumption / water consumption + systemic / organ weight / liver / absolute + systemic / in life …
[19] = group: parental, systemic / pathology gross / sperm measure / sperm count
[20] = group: reproductive, reproductive / offspring survival early / live fetuses / live fetuses
[21] = group: reproductive, reproductive / reproductive performance / fertility / fertility + reproductive / offspring survival early / live fetuses / live fetuses
[22] = systemic / clinical chemistry / creatinine / creatinine + systemic / clinical chemistry / urea nitrogen / urea nitrogen + systemic / in life…
[23] = systemic / clinical chemistry / urea nitrogen / urea nitrogen
[24] = group: developmental, developmental / developmental malformation / bone / absent + developmental / developmental malformation / bone / double-tipped + …
[25] = group: maternal, reproductive / reproductive performance / gestational length / gestational length + systemic / pathology microscopic / kidney / dilatation…

OCCO [Ethylene glycol]
LEL [1, 9]: 2500 mg/kg/day
LOAEL [1, 9]: > 2500 mg/kg/day
NEL [1, 9]: < 2500 mg/kg/day
NOAEL [1, 9]: ≥ 2500 mg/kg/day
LEL [1, 10]: 2500 mg/kg/day
LOAEL [1, 10]: > 2500 mg/kg/day
NEL [1, 10]: < 2500 mg/kg/day
NOAEL [1, 10]: ≥ 2500 mg/kg/day
LEL [2, 11]: 1500 mg/kg/day
NEL [2, 11]: < 1500 mg/kg/day
LOAEL [2, 12]: > 12000 mg/kg/day
NOAEL [2, 12]: ≥ 12000 mg/kg/day
LEL [3]: 2000 mg/kg/day
LOAEL [3]: > 2000 mg/kg/day
NEL [3]: 1000 mg/kg/day
NOAEL [3]: ≥ 2000 mg/kg/day
LEL [4, 13]: 1330 mg/kg/day
LOAEL [4, 13]: > 1330 mg/kg/day
NEL [4, 13]: 667 mg/kg/day
NOAEL [4, 13]: ≥ 1330 mg/kg/day
LEL [4, 14]: 667 mg/kg/day
LOAEL [4, 14]: > 1330 mg/kg/day
NEL [4, 14]: 333 mg/kg/day
NOAEL [4, 14]: ≥ 1330 mg/kg/day
NEL ([4]; group: reproductive, reproductive / reproductive performance / fertility / fertility): 667 mg/kg/day
LEL [4, 15]: 1330 mg/kg/day
LOAEL [4, 15]: > 1330 mg/kg/day
NOAEL [4, 15]: ≥ 1330 mg/kg/day
LOAEL [5, 16]: > 2000 mg/kg/day
NOAEL [5, 16]: ≥ 2000 mg/kg/day
LEL [5, 17]: 667 mg/kg/day
NEL [5, 17]: < 667 mg/kg/day
LOAEL [5, 18]: > 2000 mg/kg/day
NOAEL [5, 18]: ≥ 2000 mg/kg/day
LEL [5, 19]: 667 mg/kg/day
NEL [5, 19]: < 667 mg/kg/day
LEL [5, 20]: 1330 mg/kg/day
NEL [5, 20]: 667 mg/kg/day
LOAEL [5, 21]: > 2000 mg/kg/day
NOAEL [5, 21]: ≥ 2000 mg/kg/day
LOAEL [6, 22]: 1250 mg/kg/day
NOAEL [6, 22]: 625 mg/kg/day
LEL [6, 23]: 160 mg/kg/day
NEL [6, 23]: < 160 mg/kg/day
LEL [7]: 3750 mg/kg/day
LOAEL [7]: > 7500 mg/kg/day
NEL [7]: 1880 mg/kg/day
NOAEL [7]: ≥ 7500 mg/kg/day
LOAEL [8, 24]: > 2250 mg/kg/day
NEL [8, 24]: 250 mg/kg/day
NOAEL [8, 24]: ≥ 2250 mg/kg/day
LEL ([8]; group: developmental, developmental / developmental malformation / kidney / size + systemic / in life observation / body weight / fetal weight): 1250 mg/kg/day
LEL [8, 25]: 1250 mg/kg/day
LOAEL [8, 25]: > 2250 mg/kg/day
NEL [8, 25]: 250 mg/kg/day
NOAEL [8, 25]: ≥ 2250 mg/kg/day
